Details of data set [1]: method as in PMID 24521351, PMID 28927928. The note with it: literature report; cited from earlier work.
A short description of data set [2]: Ex vivo trans-corneal permeation, Franz-type diffusion cells. The note with it: ex vivo porcine cornea, epithelial side to donor, area 0.2 cm^2; donor 100 µM, 200 µL; donor and receiving solutions PBS pH 7.4; 37 °C, 6 h, hourly sampling; fluorescence 485/535 nm; mean ± sd, n = 3-4. In kind it is in vitro ADME, pig. The method, then: Permeation experiments across freshly porcine cornea were performed following a method previously reported. In detail, transparent porcine corneas were isolated from fresh pig eyes (breed: Large White and Landrace; weight: 145–190 kg; age: 10–11 months; sex: female and male; Macello Annoni SpA, Busseto, Italy) and supported by glass Franz-type diffusion cells, having a permeation area of 0.2 cm^2. The epithelial side was in contact with the donor, i.e., 200 µL of aqueous solution containing a peptide: each concentration and solvent are indicated in Table 2. Donor concentrations were selected based on different solubility and analytical sensitivity (see paragraph 2.4 and Table S2). For some peptides, the solubilization was improved by dissolving the raw material using small amount of DMSO (final concentration less than 5% v/v), and then PBS or PBS+0.1% BSA were alternately added.
To fill the receptor compartment, around 4 mL of degassed PBS or PBS+0.1% BSA was used (see Table 2), being kept at 37 °C and maintained under magnetic stirring to avoid any boundary layer effect. The presence of 0.1% BSA aids in preventing peptides aggregation. Permeation experiments lasted 6 h, and for quantification purposes, 200 µL of the receiving solution were collected every hour and reintegrated with fresh medium. Each condition was replicated between 3 and 4 times, using cornea isolated from different animals.
Permeation samples were analysed without preliminary separation by fluorescence, using a Spark 10M microplate reader (Tecan Trading AG, Switzerland); excitation and emission wavelengths were 485 nm and 535 nm, respectively. Standard solutions were prepared in PBS pH 7.4 or in PBS containing BSA 0.1%. RSD% (relative standard deviation %) was lower than 10%, while ER% (relative error %) resulted lower than 15%.
The amount of CPP permeated across the cornea (nmol/cm^2) is plotted against time (hour): the slope of the regression line at steady state represents the trans-corneal flux J (nmol/cm^2 h). The apparent permeability coefficient Papp (cm/s) is then calculated as Equation (1): Papp = J/c(1) being c (µM) the concentration of the donor solution. Papp allows for a direct comparison among permeants studied using different donor concentrations.

In the case of `CC[C@H](C)[C@H](NC(=O)[C@H](CCCCN)NC(=O)[C@@H](NC(=O)[C@H](CCC(N)=O)NC(=O)[C@H](CCCNC(=N)N)NC(=O)c1ccc2c(c1)C(=O)OC21c2ccc(O)cc2Oc2cc(O)ccc21)[C@@H](C)CC)C(=O)N[C@@H](Cc1c[nH]c2ccccc12)C(=O)N[C@@H](Cc1ccccc1)C(=O)N[C@@H](CCC(N)=O)C(=O)N[C@@H](CC(N)=O)C(=O)N[C@@H](CCCNC(=N)N)C(=O)N[C@@H](CCCNC(=N)N)C(=O)N[C@@H](CCSC)C(=O)N[C@@H](CCCCN)C(=O)N[C@@H](Cc1c[nH]c2ccccc12)C(=O)N[C@@H](CCCCN)C(=O)N[C@@H](CCCCN)C(N)=O` [reference compound], the ocular toxicity entry in data set [1] is listed as “lacking in ocular toxicity”. In addition, the “Papp (apparent permeability coefficient)” value in data set [2] is given as 4.54 ± 2.01 10^−6 cm/s.

The values are drawn from article PMC7466059, “Synthesis and Ex Vivo Trans-Corneal Permeation of Penetratin Analogues as Ophthalmic Carriers: Preliminary Results” (Pharmaceutics, 2020).
